From PubChem BioAssay AID179 (DTP/NCI, 2004) come the findings set out here.

SMILES strings stand for the structures. Active and inactive are the calls of the source.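 The calls were made as follows: active = compounds giving half or more protection of infected cells from virus-caused growth loss, again on retest; inactive = the rest.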

This assay relates to CEM cells HIV-1 protection, formazan growth assay. Nature of the assay: NCI AIDS Antiviral Assay. The settings on record: for IC50: measured here: growth of uninfected CEM cells. The gist of the method: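 Protection of CEM cells against HIV-1 was scored from cell growth (soluble formazan) across five concentrations, with parallel uninfected cells. Lack of protection may reflect toxicity.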

For orientation: EC50 means the midpoint of the concentration-response curve. As a reminder, the IC50 is the concentration that inhibits the measured activity by half. Read a high IC50 as lower potency. `CC1CC/C(=C\c2ccc(N(C)C)cc2)C2=C1C(c1ccc(N(C)C)cc1)NC(=S)N2` (stereo unspecified): the EC50 is > 100 µM and the IC50 is > 100 µM.
Regarding `c1ccc([P+](CCSCCSCC[P+](c2ccccc2)(c2ccccc2)c2ccccc2)(c2ccccc2)c2ccccc2)cc1`, the EC50 was > 339 µM and the IC50 was 61.7 µM.
With `CC1CCOC(Sc2ccccc2)C1` (stereo unspecified), the result was inactive.
As to `O=P1(Cc2ccccc2)C(c2ccccc2)=C(O)C2CCCC21` (stereo unspecified), the EC50 was > 112 µM and the IC50 was > 112 µM.
As for `N#Cc1nc(/C=C/c2cccnc2)oc1N`, the EC50 was > 200 µM and the IC50 was > 200 µM.
With `CCN1C2=NCCN2S(=O)(=O)c2ccccc21`, the EC50 was > 1000 µM and the IC50 was determined as 479 µM.
Turning to `CC1=CC(c2ccccc2)OP1(=O)c1ccccc1` (stereo unspecified), the EC50 was > 200 µM and the IC50 was > 200 µM.
As to `Nc1nc2c(ccn2[C@H]2C=C[C@@H](CO)C2)c(=O)[nH]1`, the EC50 is > 275 µM and the IC50 is > 275 µM.
Consider `O=C(NNC(=O)c1cc(/C=C/c2cccc([N+](=O)[O-])c2)[nH]c(=S)n1)Nc1ccc(Cl)cc1`, for which the EC50 was > 11 µM and the IC50 was > 11 µM.
Regarding `CCN(CCCCOC(=O)c1ccc(OC)c(OC)c1)C(C)Cc1ccc(OC)cc1` (stereo unspecified), the EC50 is > 200 µM and the IC50 was determined as 102 µM.
Turning to `COc1cc(CNC(=O)CCCCCCCCCCSSCCCCCCCCCCC(=O)NCc2ccc(O)c(OC)c2)ccc1O`, the EC50 is > 200 µM.
For `C/C(=N\O)c1sc(-n2nc(-c3ccccc3)cc2-c2ccccc2)nc1C`, the EC50 was > 95.5 µM and the half-maximal inhibitory concentration (IC50) came out at 44.7 µM.
On the same counts, the results for `Nc1nc(N)nc(NCCSSCCNc2nc(N)nc(N)n2)n1` are > 200 µM and 97.7 µM.
On the same counts, the results for `CN1C(=O)C(O)(c2c3c(c(C4(O)C(=O)N(C)c5ccccc54)c4c2OCO4)OCO3)c2ccccc21` (stereo unspecified) are > 200 µM and > 200 µM.
On the same counts, the results for `CC(CO)CCNc1ncnc2c1ncn2CCC(=O)O` (stereo unspecified) are > 200 µM and > 200 µM.
As for `O=C(N/C(=C\c1cccc([N+](=O)[O-])c1)c1nc2[nH]c(=S)[nH]c(=O)c2[nH]1)c1ccccc1`, the outcome was inactive.
Turning to `CN1c2c(C(=O)NCCCN3CCOCC3)nn(-c3cccc(C(F)(F)F)c3)c2-c2ccccc2S1(=O)=O`, the EC50 is > 66.1 µM and the concentration for half-maximal inhibition (IC50) is > 66.1 µM.
Regarding `O=C(NC1CCCCC1)NC12CC3CC(CC(F)(C3)C1)C2`, the EC50 is > 45.7 µM and the IC50 is > 45.7 µM.
Take `O=c1c(-c2ccc(O)c(O)c2)coc2cc(O)c(O)cc12`: the EC50 is > 200 µM and the half-inhibitory concentration (IC50) worked out at 24.5 µM.
On the same counts, the results for `CCCCOC(=O)CC(C(=O)OCCCC)C(C(=O)OCCCC)P(=O)(OCCCC)OCCCC` (stereo unspecified) are > 26.3 µM and 17.4 µM.
Consider `Cc1cc(C)c2cc(=O)oc-2c(C)c1`, for which the EC50 was > 93.3 µM and the IC50 is > 93.3 µM.
As to `CCOP(=Nc1ccc(N(C)C)cc1)(OCC)OCC`, the EC50 was > 200 µM and the 50% inhibitory concentration (IC50) is > 200 µM.
Regarding `CC(=O)O/C=C1/C[C@H]2[C@@H]3CCC4CC(C(C)=O)CC[C@]4(C)[C@H]3CC[C@]2(C)C1=O` (stereo partly specified), the EC50 was > 200 µM and the IC50 worked out at 107 µM.
On the same counts, the results for `C(=N\Nc1ccccn1)/c1ccccn1.C(=N\Nc1ccccn1)/c1ccccn1.[Cl-].[Fe+3]` are > 200 µM and 117 µM.
With `C[C@@H]1CC[C@@]2(OC1)O[C@H]1C[C@H]3[C@@H]4CC[C@H]5C[C@@H](OC6OC(CO)C(OC7OC(CO)C(O)C(OC8OCC(O)C(O)C8O)C7OC7OC(CO)C(O)C(O)C7O)C(O)C6O)CC[C@]5(C)[C@H]4CC[C@]3(C)[C@H]1[C@@H]2C` (stereo partly specified), the EC50 is > 100 µM and the IC50 worked out at 6.17 µM.
On the same counts, the results for `Clc1cccc(Cl)c1C1SCc2nc3ncccc3n21` (stereo unspecified) are 32.4 µM and 105 µM.
Consider `COc1cccc(NC(=O)CSc2nnc(-c3ccc(NC(C)=O)cc3)o2)c1`, for which the EC50 was > 64.6 µM and the IC50 was > 64.6 µM.
As for `CC12Nc3c(Cl)cc(Cl)cc3N1C(=O)c1ccccc12` (stereo unspecified), the EC50 was > 200 µM and the IC50 is 87.1 µM.
Turning to `c1ccc(-c2nc3nc4ccccc4nc3nc2-c2cccnc2)nc1`, the EC50 was > 8.13 µM and the IC50 was > 8.13 µM.
Regarding `CCC(C)NC(=O)/C(=C\c1ccccc1O)NC(=O)c1ccccc1` (stereo unspecified), the EC50 was > 200 µM and the IC50 was > 200 µM.
Regarding `O=C1C(N=Nc2ccc([N+](=O)[O-])cc2)Sc2nc3ccccc3n21` (stereo unspecified), the EC50 is > 200 µM and the IC50 was 178 µM.
As to `OC1CC1Sc1ccccc1` (stereo unspecified), the outcome was inactive.
With `CS(=O)(=O)NNS(=O)(=O)c1ccc2ccccc2c1`, the EC50 is > 224 µM and the 50% inhibitory concentration (IC50) is > 224 µM.
With `O=C1C2=Cc3ccccc3CCN2c2ccccc21`, the EC50 is > 200 µM and the 50% inhibitory concentration (IC50) worked out at 26.9 µM.
On the same counts, the results for `COC(=O)CCC12CCC(O1)c1ccccc12` (stereo unspecified) are > 200 µM and > 200 µM.
For `Cc1cc(S(=O)(=O)Nc2nc3ccccc3c(=O)n2N)c(S)cc1Cl`, the EC50 was 40.7 µM and the IC50 came out at 77.6 µM.
On the same counts, the results for `CNc1nc2cc(OC)c(OC)cc2c(=O)[nH]1` are > 200 µM and 191 µM.
Turning to `CC1=C([N+](=O)[O-])[C@@H](N2CCOCC2)[C@](C)(N2CCOCC2)S1`, the result was inactive.
Take `COc1ccc(Br)cc1-c1cc(Br)ccc1OC`: the EC50 is > 200 µM and the IC50 came out at 12.6 µM.
For `COc1ccc(-c2c(C#N)cnc(C)c2C)c(O)c1OC`, the EC50 was > 631 µM and the IC50 came out at 115 µM.
On the same counts, the results for `CC1C(c2ccccc2)=Nn2c(=O)n(-c3ccccc3)c(=O)n21` (stereo unspecified) are > 200 µM and > 200 µM.
On the same counts, the results for `CN(C)CCC(O)(Cc1ccccc1)c1cccc(Cl)c1` (stereo unspecified) are > 200 µM and 87.1 µM.
On the same counts, the results for `O=C1NCCN1/N=C/c1c(Cl)n(-c2ccccc2)c2ccccc12` are > 200 µM and 16.6 µM.
For the compound `COc1ccccc1NC(=S)Nc1cc(C)cc(C)n1`, the EC50 was > 200 µM and the IC50 is > 200 µM.
Regarding `COc1c2c(cc3ccc(=O)oc13)C(Cl)C(Cl)O2` (stereo unspecified), the EC50 was > 77.6 µM and the half-maximal inhibitory concentration (IC50) worked out at 21.9 µM.
On the same counts, the results for `O=C1OC(C(O)CO)C(O)=C1Nc1ccc(S(=O)(=O)c2ncc(NC3=C(O)C(C(O)CO)OC3=O)s2)cc1` (stereo unspecified) are > 200 µM and 21.9 µM.
On the same counts, the results for `O=C(O)C(=O)/C=C\c1ccc(Cl)cc1` are > 617 µM and 191 µM.
On the same counts, the results for `O=C(CCc1nc(=S)[nH][nH]1)Nc1ccccc1Cl` are > 457 µM and > 457 µM.
`CCOC(=O)c1c(SC(=O)c2cc(OC)c(OC)c(OC)c2)n(-c2ccccc2)c(=S)n(-c2ccccc2)c1=O`: the EC50 was > 200 µM and the IC50 was found to be 32.4 µM.
`O=c1c(N(CCO)CCO)cn(C(c2ccccc2)(c2ccccc2)c2ccccc2)c(=O)n1C(c1ccccc1)(c1ccccc1)c1ccccc1`: the EC50 is > 200 µM and the IC50 amounted to 3.02 µM.
On the same counts, the results for `CCCCCCn1c(SC)nc(COC(=O)NC)c1COC(=O)NC` are > 200 µM and 35.5 µM.
On the same counts, the results for `O=c1[nH]cnc(O)c1N=Nc1ccc(/C=C/c2ccc(N=Nc3c(O)nc[nH]c3=O)cc2S(=O)(=O)O)c(S(=O)(=O)O)c1` are > 63.1 µM and > 63.1 µM.
On the same counts, the results for `COc1ccc(NC(=O)/C(N=O)=C(/C)O)cc1` are > 1050 µM and > 1050 µM.
As for `CN(C)CCOc1ccc(-c2c(Oc3ccccc3)c(=O)oc3ccccc23)cc1`, the EC50 was > 200 µM and the IC50 was determined as 8.71 µM.
`CN(C)C=C1C(=O)NC(=O)NC1=O`: the EC50 was > 200 µM and the IC50 was > 200 µM.
`CC(=O)OC12c3ccccc3C(c3ccccc31)C1C(=O)N(c3ccccc3O)C(=O)C12` (stereo unspecified): the EC50 was 100 µM and the IC50 was 105 µM.
For the compound `O=C1OC(CC(=O)c2ccc(Cl)c(Cl)c2)C(Cl)=C1Cl` (stereo unspecified), the EC50 is > 75.9 µM and the IC50 was > 75.9 µM.
`CC(=O)Nc1ccccc1S(=O)c1ccccc1` (stereo unspecified): the EC50 was > 229 µM and the IC50 is > 229 µM.
`COc1cc2cc[n+]3c4cc(OC)c(OC)cc4c(C)cc3c2cc1OC`: the result was inactive.
For the compound `COc1ccc(-n2sc3ncccc3c2=O)cc1`, the 50% effective concentration (EC50) is > 18.2 µM and the half-inhibitory concentration (IC50) stood at 6.03 µM.
On the same counts, the results for `COc1ccc(N2C(=O)C3C=CC(n4[nH]c(=O)n(Cc5ccccc5)c4=O)CC3C2=O)cc1` (stereo unspecified) are > 407 µM and 209 µM.
As to `CC1(C)N=C(C(N)=O)c2[nH]cnc2N1`, the EC50 was > 200 µM and the half-inhibitory concentration (IC50) is > 200 µM.
Regarding `COC(=O)C(Cc1nc2ccccc2[nH]c1=O)/C(=N\NC(C)(C)C)C(=O)Nc1c(C)cc(Br)cc1C` (stereo unspecified), the EC50 is > 64.6 µM and the IC50 came to 47.9 µM.
On the same counts, the results for `Cn1nc(NC(=O)c2cc(N)nn2C)cc1C(=O)Nc1ccc2cc(S(=O)(=O)O)cc(S(=O)(=O)O)c2c1` are > 200 µM and > 200 µM.
On the same counts, the results for `COC(=O)c1ccc(CS(=O)(=O)c2ccccc2)cc1` are > 12.9 µM and > 12.9 µM.
On to `O=C(Nc1ccccc1)N(CCN(Cc1ccccc1)C(=O)Nc1ccccc1)CCN(Nc1ccccc1)C(=O)Nc1ccccc1`, for which the EC50 is > 200 µM and the IC50 was > 200 µM.
In the case of `COc1cc(Cc2cc3c(c(C(=O)O)c2Br)OCO3)cc(OC)c1OC`, the EC50 is > 200 µM and the IC50 amounted to 44.7 µM.
With `Oc1[nH]c2ccccc2c1N=NC(=S)Nc1ccc(Cl)cc1`, the EC50 is > 200 µM and the 50% inhibitory concentration (IC50) amounted to 24.5 µM.
On the same counts, the results for `CCc1cccc(CC)c1N=C(NC(=O)c1ccc(Br)cc1)SC` are > 200 µM and > 200 µM.
On the same counts, the results for `O=C(c1ccccc1)c1cc2c([nH]c1=O)CCCCC2` are > 200 µM and 135 µM.
On the same counts, the results for `COc1cc[c]([Sb]([Br])([CH]=C(C)C)([CH]=C(C)C)[CH]=C(C)C)cc1` are > 380 µM and 3.02 µM.
